Assay results: the supplement of paper PMC10307832

Columns and labels:
Assay in all cases: relative viability (nuclei count vs DMSO), 5 days (fraction); higher = more cells survive
[1] = test system: NCI-H1355
How it was run: (§1)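 A single step with final 0.05% Triton X-100, 1% formaldehyde and 1 ug/ml Hoechst fixed the cells and stained nuclei 5 days after treatment. Lung cancer cell lines in 1536-well plates had been treated by pin tool the day after seeding with one drug alone or a fixed anchor-drug dose plus five library-drug doses (not always all listed) in √10 steps, and nuclei were counted on 4× images. Relative viability is the ratio of nuclei in treated wells to nuclei in vehicle wells, taken as the median of duplicate plates.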

[2] = test system: NCI-H1975
How it was run: as §1

[3] = test system: HCC-78
How it was run: as §1

[4] = test system: LCLC-97TM1
How it was run: as §1

[5] = test system: NCI-H1651
How it was run: as §1

[6] = test system: PC-3 [JPC-3]
How it was run: as §1

[7] = test system: NCI-H2087
How it was run: as §1

[8] = test system: NCI-H596
How it was run: as §1

[9] = test system: LC-2-ad
How it was run: as §1

[10] = test system: NCI-H1666
How it was run: as §1

[11] = test system: NCI-H838
How it was run: as §1

[12] = test system: NCI-H650
How it was run: as §1

[13] = test system: NCI-H661
How it was run: as §1

[14] = test system: ChaGo-K-1
How it was run: as §1

[15] = test system: BEN
How it was run: as §1

[16] = test system: LU99A
How it was run: as §1

[17] = test system: LXF-289
How it was run: as §1

O=c1cc(-c2cccc3c2Sc2ccccc2S3)oc(N2CCOCC2)c1 + CC(C)C[C@H](NC(=O)[C@H](Cc1ccccc1)NC(=O)c1cnccn1)B(O)O [Bortezomib] (partner 0.002 µM)
relative viability ([1]; first compound 0.08 µM): 1.25
relative viability ([1]; first compound 0.253 µM): 1.35
relative viability ([1]; first compound 0.8 µM): 1.22
relative viability ([1]; first compound 2.53 µM): 1.16
relative viability ([1]; first compound 8 µM): 1.3
relative viability ([2]; first compound 0.08 µM): 0.425
relative viability ([2]; first compound 0.253 µM): 0.419
relative viability ([2]; first compound 0.8 µM): 0.319
relative viability ([2]; first compound 2.53 µM): 0.367
relative viability ([2]; first compound 8 µM): 0.384
relative viability ([3]; first compound 0.08 µM): 0.461
relative viability ([3]; first compound 0.253 µM): 0.48
relative viability ([3]; first compound 0.8 µM): 0.355
relative viability ([3]; first compound 2.53 µM): 0.482
relative viability ([3]; first compound 8 µM): 0.525
relative viability ([4]; first compound 0.08 µM): 0.732
relative viability ([4]; first compound 0.253 µM): 0.387
relative viability ([4]; first compound 0.8 µM): 0.528
relative viability ([4]; first compound 2.53 µM): 0.344
relative viability ([4]; first compound 8 µM): 1.16
relative viability ([5]; first compound 0.08 µM): 0.925
relative viability ([5]; first compound 0.253 µM): 1.08
relative viability ([5]; first compound 0.8 µM): 0.935
relative viability ([5]; first compound 2.53 µM): 0.906
relative viability ([5]; first compound 8 µM): 0.964
relative viability ([6]; first compound 0.08 µM): 0.875
relative viability ([6]; first compound 0.253 µM): 0.801
relative viability ([6]; first compound 0.8 µM): 0.886
relative viability ([6]; first compound 2.53 µM): 0.818
relative viability ([6]; first compound 8 µM): 1.12
relative viability ([7]; first compound 0.08 µM): 1.06
relative viability ([7]; first compound 0.253 µM): 1.02
relative viability ([7]; first compound 0.8 µM): 1.1
relative viability ([7]; first compound 2.53 µM): 0.792
relative viability ([7]; first compound 8 µM): 0.888
relative viability ([8]; first compound 0.08 µM): 0.985
relative viability ([8]; first compound 0.253 µM): 1.18
relative viability ([8]; first compound 0.8 µM): 0.959
relative viability ([8]; first compound 2.53 µM): 0.745
relative viability ([8]; first compound 8 µM): 1.14
relative viability ([9]; first compound 0.08 µM): 0.989
relative viability ([9]; first compound 0.253 µM): 0.827
relative viability ([9]; first compound 0.8 µM): 1.06
relative viability ([9]; first compound 2.53 µM): 1.02
relative viability ([9]; first compound 8 µM): 1.07
relative viability ([10]; first compound 0.08 µM): 0.666
relative viability ([10]; first compound 0.253 µM): 0.887
relative viability ([10]; first compound 0.8 µM): 0.559
relative viability ([10]; first compound 2.53 µM): 0.793
relative viability ([10]; first compound 8 µM): 0.759
relative viability ([11]; first compound 0.08 µM): 0.703
relative viability ([11]; first compound 0.253 µM): 1.05
relative viability ([11]; first compound 0.8 µM): 0.728
relative viability ([11]; first compound 2.53 µM): 0.693
relative viability ([11]; first compound 8 µM): 0.588
relative viability ([12]; first compound 0.08 µM): 0.701
relative viability ([12]; first compound 0.253 µM): 0.74
relative viability ([12]; first compound 0.8 µM): 0.869
relative viability ([12]; first compound 2.53 µM): 0.599
relative viability ([12]; first compound 8 µM): 0.803
relative viability ([13]; first compound 0.08 µM): 0.808
relative viability ([13]; first compound 0.253 µM): 0.935
relative viability ([13]; first compound 0.8 µM): 0.837
relative viability ([13]; first compound 2.53 µM): 0.798
relative viability ([13]; first compound 8 µM): 0.912
relative viability ([14]; first compound 0.08 µM): 0.915
relative viability ([14]; first compound 0.253 µM): 1.02
relative viability ([14]; first compound 0.8 µM): 1.28
relative viability ([14]; first compound 8 µM): 1.29
relative viability ([15]; first compound 0.08 µM): 0.802
relative viability ([15]; first compound 0.253 µM): 0.858
relative viability ([15]; first compound 0.8 µM): 0.991
relative viability ([15]; first compound 2.53 µM): 0.889
relative viability ([15]; first compound 8 µM): 1.23
relative viability ([16]; first compound 0.08 µM): 1.18
relative viability ([16]; first compound 0.253 µM): 1.07
relative viability ([16]; first compound 0.8 µM): 1.5
relative viability ([16]; first compound 2.53 µM): 1.03
relative viability ([16]; first compound 8 µM): 1.3
relative viability ([17]; first compound 0.08 µM): 0.994
relative viability ([17]; first compound 0.253 µM): 0.976
relative viability ([17]; first compound 0.8 µM): 1.08
relative viability ([17]; first compound 2.53 µM): 0.988
relative viability ([17]; first compound 8 µM): 1.03
